Assay results reported in PMC5923123, “In Vitro and In Vivo Efficacy of a Novel and Long-Acting Fungicidal Azole, PC1244, on Aspergillus fumigatus Infection” (Antimicrobial Agents and Chemotherapy, 2018).
Converted amounts (≈) assume the structure as drawn. Where two headings read alike, the source gives them in different places.

Columns and labels:
A. fumigatus ATCC 204305 = assay: EUCAST MIC, quality control strain; assay type: cell-based; details: Aspergillus fumigatus, ATCC204305; quality control strain ATCC 204305
Text: The antifungal activity of PC1244 was further evaluated against 96 clinical isolates (obtained from Saint Louis Hospital, Paris, France [50 isolates], and the North West England Mycology Reference Centre, Manchester, UK [46 isolates]). […] .

[1] = test system: sterol composition of A. fumigatus (NCPF2010); assay: A. fumigatus sterol analysis (GC-MS); assay type: cell-based, Aspergillus fumigatus; details: 2 h
[2] = test system: A. fumigatus (ATCC 13073 [strain NIH 5233]); assay: In vivo antifungal activity, late intervention (intranasal, days 1-3 postinfection), temporarily neutropenic mice
[3] = test system: Aspergillus carbonarius (ATCC 8740); assay: CLSI MIC; assay type: cell-based
[4] = test system: Aspergillus flavus (AFL8, NRRC3357); assay: EUCAST MIC; assay type: cell-based
[5] = test system: Aspergillus niger (ATCC 1015); assay: EUCAST MIC; assay type: cell-based
[6] = test system: Aspergillus terreus (AT49, AT7130); assay: EUCAST MIC; assay type: cell-based
[7] = test system: Penicillium citrinum (ATCC 9849); assay: CLSI MIC; assay type: cell-based; details: ATCC9849, 1 strain
[8] = test system: Candida albicans (20240.047, ATCC 10231); assay: CLSI MIC; assay type: cell-based
[9] = test system: Candida albicans AR (20183.073, 20186.025); assay: CLSI MIC; assay type: cell-based
[10] = test system: Candida glabrata (ATCC 36583, R363); assay: CLSI MIC; assay type: cell-based; details: Nakaseomyces glabratus
[11] = test system: Candida parapsilosis (ATCC 22019); assay: CLSI MIC; assay type: cell-based; details: ATCC22019, 1 strain, MIC = 50% inhibition of fungal growth
[12] = test system: Gibberella zeae(Fusarium graminearum) (ATCC 16106); assay: microbe, parasite or virus in culture; assay type: cell-based; details: ATCC16106
[13] = test system: Cryptococcus gattii (clinical isolate); assay: EUCAST MIC (EDef 7.2); assay type: cell-based; details: 1 strain
[14] = test system: Rhizomucor pusillus (ATCC 16458); assay: CLSI MIC; assay type: cell-based; details: ATCC16458, 1 strain
A. fumigatus isolates = test system: A. fumigatus isolates; set-up: method as in PMID 12202554; details: MFC = lowest dilution yielding less than 3 colonies; cited from earlier work
in vivo = details: mouse
A. fumigatus CYP51A = A. fumigatus CYP51A (Aspergillus fumigatus, UniProt Q4WNT5); assay: CYP51 reconstitution assay (sterol 14α-demethylase inhibition)
Sequence of A. fumigatus CYP51A (Q4WNT5 whole entry): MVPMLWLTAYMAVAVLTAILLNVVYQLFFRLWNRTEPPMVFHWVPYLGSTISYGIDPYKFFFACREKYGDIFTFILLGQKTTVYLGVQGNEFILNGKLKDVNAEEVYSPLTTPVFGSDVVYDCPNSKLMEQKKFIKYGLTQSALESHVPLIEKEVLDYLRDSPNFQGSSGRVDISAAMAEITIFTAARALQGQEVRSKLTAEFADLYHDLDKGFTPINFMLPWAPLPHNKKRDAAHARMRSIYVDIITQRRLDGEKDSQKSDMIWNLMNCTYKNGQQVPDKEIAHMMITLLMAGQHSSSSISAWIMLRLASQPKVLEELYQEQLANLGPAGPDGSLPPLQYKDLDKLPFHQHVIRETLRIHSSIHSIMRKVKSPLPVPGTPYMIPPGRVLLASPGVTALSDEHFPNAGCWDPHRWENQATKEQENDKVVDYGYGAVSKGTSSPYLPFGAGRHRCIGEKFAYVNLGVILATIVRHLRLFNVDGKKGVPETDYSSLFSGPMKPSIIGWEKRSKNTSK
Protocol: (§1) The test agent was added to a mixture of 0.5 μM CYP51, 1 μM A. fumigatus cytochrome P450 reductase isoenzyme 1 (AfCPR1), 50 μM eburicol, 4% (wt/vol) 2-hydroxypropyl-β-cyclodextrin, 0.4 mg/ml isocitrate dehydrogenase, 25 mM trisodium isocitrate, 50 mM NaCl, 5 mM MgCl2, and 40 mM 3-(N-morpholino) propanesulfonic acid (MOPS; pH of ∼7.2). The mixtures were then incubated at 37°C for 10 min prior to initiation with 4 mM β-NADPHNa4, followed by shaking for 20 min at 37°C. Sterol metabolites were recovered by extraction with ethyl acetate followed by derivatization with 0.1 ml N,O-bis(trimethylsilyl)trifluoroacetamide: trimethylchlorosilane (99:1) and 0.3 ml anhydrous pyridine prior to analysis by gas chromatography-mass spectrometry.

A. fumigatus CYP51B = A. fumigatus CYP51B (Aspergillus fumigatus, UniProt E9QY26); assay: as above
Sequence of A. fumigatus CYP51B (E9QY26 whole entry): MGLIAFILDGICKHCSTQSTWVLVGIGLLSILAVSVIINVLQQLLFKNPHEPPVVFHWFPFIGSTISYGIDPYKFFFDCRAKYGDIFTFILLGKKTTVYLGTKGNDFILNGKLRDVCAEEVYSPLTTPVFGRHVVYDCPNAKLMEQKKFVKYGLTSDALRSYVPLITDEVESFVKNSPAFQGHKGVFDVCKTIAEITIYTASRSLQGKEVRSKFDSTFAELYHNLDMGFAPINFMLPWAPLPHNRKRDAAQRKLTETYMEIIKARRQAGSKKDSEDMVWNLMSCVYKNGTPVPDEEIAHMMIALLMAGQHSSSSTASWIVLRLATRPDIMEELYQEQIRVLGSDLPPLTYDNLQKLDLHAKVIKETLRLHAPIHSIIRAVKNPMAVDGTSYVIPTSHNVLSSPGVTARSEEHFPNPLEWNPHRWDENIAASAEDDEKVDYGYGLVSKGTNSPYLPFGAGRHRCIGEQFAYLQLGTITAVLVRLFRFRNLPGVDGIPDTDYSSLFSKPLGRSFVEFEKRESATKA
Protocol: as §1

[15] = test system: A. fumigatus (ATCC 13073); assay: In vivo persistence of action: single intranasal prophylactic dose 16 h before inoculation; details: PC1244 0.4 mg/ml, POS 0.8 mg/ml intranasal 16 h before inoculation; lungs 8 h after
[16] = test system: A. fumigatus (ATCC 13073 [strain NIH 5233]); assay: MIC against the strain used in vivo; assay type: cell-based; details: Aspergillus fumigatus, ATCC13073
[17] = test system: Candida krusei (ATCC 6258); assay: CLSI MIC; assay type: cell-based; details: Pichia kudriavzevii, ATCC6258
[18] = EUCAST, 2 strains, mean MIC, read-out: MIC

CC[C@@H]([C@H](C)O)n1ncn(-c2ccc(N3CCN(c4ccc(OC[C@@H]5CO[C@@](Cn6cncn6)(c6ccc(F)cc6F)C5)cc4)CC3)cc2)c1=O [Posaconazole, posaconazole]
MIC (A. fumigatus ATCC 204305): 0.25 µg/mL (≈ 0.357 µM) | Sterol composition: Eburicol ([1]; compound at 0.0001 μg/ml): 2.2 ± 1.2% | Sterol composition: Ergost-5,7-dienol ([1]; compound at 0.0001 μg/ml): 3.3 ± 1.9% | Sterol composition: Ergosterol ([1]; compound at 0.0001 μg/ml): 94.5 ± 0.1% | Sterol composition: Lanosterol ([1]; compound at 0.0001 μg/ml): 0% | Sterol composition: Eburicol ([1]; compound at 0.001 μg/ml): 5.9 ± 0.5% | Sterol composition: Ergost-5,7-dienol ([1]; compound at 0.001 μg/ml): 3.9 ± 0.6% | Sterol composition: Ergosterol ([1]; compound at 0.001 μg/ml): 87.2 ± 0.7% | Sterol composition: Lanosterol ([1]; compound at 0.001 μg/ml): 3.0 ± 0.9% | Sterol composition: Eburicol ([1]; compound at 0.01 μg/ml): 18.3 ± 1.1% | Sterol composition: Ergost-5,7-dienol ([1]; compound at 0.01 μg/ml): 0% | Sterol composition: Ergosterol ([1]; compound at 0.01 μg/ml): 74.7 ± 0.8% | Sterol composition: Lanosterol ([1]; compound at 0.01 μg/ml): 7.0 ± 0.3% | Sterol composition: Eburicol ([1]; compound at 0.1 μg/ml): 23.4 ± 0.8% | Sterol composition: Ergost-5,7-dienol ([1]; compound at 0.1 μg/ml): 0% | Sterol composition: Ergosterol ([1]; compound at 0.1 μg/ml): 67.8 ± 0.3% | Sterol composition: Lanosterol ([1]; compound at 0.1 μg/ml): 8.8 ± 0.5% | Sterol composition: Eburicol ([1]; compound at 1 μg/ml): 23.8 ± 1.3% | Sterol composition: Ergost-5,7-dienol ([1]; compound at 1 μg/ml): 0% | Sterol composition: Ergosterol ([1]; compound at 1 μg/ml): 67.4 ± 1.5% | Sterol composition: Lanosterol ([1]; compound at 1 μg/ml): 8.8 ± 0.4% | inhibition of GM in serum ([2]; 0.08 mg/ml (2.8 μg/mouse) intranasal once daily days 1-3): −11% | inhibition of fungal load (CFU) in the lung vs vehicle ([2]; 0.08 mg/ml, 35 μl intranasal once daily days 1-3 postinfection): 39% | log10 ID fold higher than that of PC1244 ([2]; mouse, in vivo): 143 fold | MIC ([3]; ATCC8740, CLSI, 1 strain, read-out: MIC): 0.063 µg/mL (≈ 0.0899 µM) | MIC [4, 18]: 0.16 µg/mL (≈ 0.228 µM) | MIC ([5]; ATCC1015, EUCAST, 1 strain, read-out: MIC): 0.2 µg/mL (≈ 0.285 µM) | MIC [6, 18]: 0.093 µg/mL (≈ 0.133 µM) | MIC [7]: 0.5 µg/mL (≈ 0.713 µM) | MIC ([8]; ATCC10231, CLSI, 2 strains, mean MIC, MIC = 50% inhibition of fungal growth, read-out: MIC): 0.081 µg/mL (≈ 0.116 µM) | MIC ([9]; CLSI, 2 azole (fluconazole and voriconazole) resistant strains, MIC = 50% inhibition, two individual values for PC1244, read-out: MIC): 8.13 µg/mL (≈ 11.6 µM) | MIC ([10]; ATCC36583, CLSI, 2 strains, MIC = 50% inhibition, two individual values for PC1244, read-out: MIC): 0.5 µg/mL (≈ 0.713 µM) | MIC [11]: 0.25 µg/mL (≈ 0.357 µM) | MIC [12]: > 8 µg/mL | MIC [13]: 0.5 µg/mL (≈ 0.713 µM) | MIC [14]: > 8 µg/mL | range of MFCs for inhibition of 90% of isolates tested (MFC90) (A. fumigatus isolates): 0.06 to 2 µg/mL | concentration at 24 h (in vivo): 15.6 to 125 ng/mL | Ki (A. fumigatus CYP51A): < 1 nM | Ki (A. fumigatus CYP51B): < 1 nM | number of CFU in the lung [15]: did not

C[C@@H](c1ncncc1F)[C@](O)(Cn1cncn1)c1ccc(F)cc1F [Voriconazole, voriconazole]
MIC [16]: 0.5 µg/mL (≈ 1.43 µM) | MIC ([3]; ATCC8740): 0.5 µg/mL (≈ 1.43 µM) | MIC [4]: 0.63 µg/mL (≈ 1.8 µM) | MIC ([5]; ATCC1015): 1 µg/mL (≈ 2.86 µM) | MIC [6]: 1 µg/mL (≈ 2.86 µM) | MIC [7]: > 8 µg/mL | MIC ([8]; ATCC10231): 0.14 µg/mL (≈ 0.401 µM) | MIC [9]: 10 µg/mL (≈ 28.6 µM) | MIC ([10]; ATCC36583): 8.13 µg/mL (≈ 23.3 µM) | MIC [17]: 0.25 µg/mL (≈ 0.716 µM) | MIC [12]: > 8 µg/mL | MIC [14]: > 8 µg/mL | range of MFCs for inhibition of 90% of isolates tested (MFC90) (A. fumigatus isolates): 0.5 to 4 µg/mL
